From ChEMBL document CHEMBL5131537 (J Med Chem, 2022)

How the values were obtained:
[1] = Cytotoxicity against human MT4 cells assessed as reduction in cell viability by MTT assay; assay type: toxicity, cell-based
[2] = test system: Human immunodeficiency virus 1; test: microbe, parasite or virus in culture; conditions: Human immunodeficiency virus 1, IIIB, MT4
Description: Antiviral activity against wild type HIV-1 IIIB infected in human MT4 cells assessed as protection against virus-induced cytopathic effect by MTT assay

[3] = molecular target: Human immunodeficiency virus type 1 reverse transcriptase (Human immunodeficiency virus 1, UniProt Q72547)
Description: Inhibition of HIV-1 reverse transcriptase using oligo(dT)16 as primer measured after 40 mins by picogreen-dye based spectrofluorometric analysis

in vitro [4] = conditions: human, MT4 cells
Description: Selectivity index, ratio of CC50 for cytotoxicity against human MT4 cells to EC50 for antiviral activity against wild type HIV-1 IIIB infected in human MT4 cells

[5] = Metabolic stability in human liver assessed as intrinsic clearance in microsomes at 1 uM measured up to 45 mins in presence of NADPH by LC-MS/MS analysis; assay type: ADME; conditions: read-out: CLH
[6] = test system: Human immunodeficiency virus 1; test: microbe, parasite or virus in culture; conditions: Human immunodeficiency virus 1, IIIB, MT4; remark: listed apart in the source
Description: Antiviral activity against HIV-1 IIIB harboring reverse transcriptase Y188L mutant infected in human MT4 cells by MTT assay

in vitro [7] = conditions: human
in vitro [8] = conditions: human; remark: listed apart in the source
[9] = test system: Human immunodeficiency virus 1; test: Antiviral activity against HIV-1 IIIB harboring reverse transcriptase Y181C mutant infected in human MT4 cells by MTT assay; assay type: functional, organism-based; conditions: Human immunodeficiency virus 1, IIIB
[10] = test system: Human immunodeficiency virus 1; test: Antiviral activity against HIV-1 IIIB harboring reverse transcriptase […] mutant infected in human MT4 cells by MTT assay; assay type: functional, organism-based; conditions: Human immunodeficiency virus 1, IIIB
[11] = test system: Human immunodeficiency virus 1; test: Antiviral activity against HIV-1 IIIB harboring reverse transcriptase K103N mutant infected in human MT4 cells by MTT assay; assay type: functional, organism-based; conditions: Human immunodeficiency virus 1, IIIB
[12] = test system: Human immunodeficiency virus 1; test: Antiviral activity against HIV-1 IIIB harboring reverse transcriptase E138K mutant infected in human MT4 cells by MTT assay; assay type: functional, organism-based; conditions: Human immunodeficiency virus 1, IIIB

Structure (SMILES)	CC50 [1] [nM]	EC50 [2] [nM]	IC50 [3] [nM]	selectivity ratio (in vitro [4])	microsomal CLint at 1 µM [5] [µL/min/mg]	EC50 [6] [nM]	CLint scaled at 0.75 h, 1 µM (in vitro [7]; liver) [mL/min/kg]	half-life at 0.75 h, 1 µM (in vitro [8]; liver microsomes) [min]	EC50 [9] [nM]	EC50 [10] [nM]	EC50 [11] [nM]	EC50 [12] [nM]	CLint scaled at 0.75 h, 1 µM (in vitro [7]) [mL/min/kg]	half-life at 0.75 h, 1 µM (in vitro [8]; microsomes) [min]
COc1cccc(-c2cc(C)c(Oc3cc(N)nc(Nc4ccc(C#N)cc4)n3)c(C)c2)c1	19300	9.7	73	1980	–	–	–	–	–	–	–	–	–	–
Cc1cc(-c2ccc(C#N)c(F)c2)ccc1Oc1cc(N)nc(Nc2ccc(C#N)cc2)n1	6600	6	39	1090	–	–	–	–	–	–	–	–	–	–
Cc1cc(Oc2cc(N)nc(Nc3ccc(C#N)cc3)n2)ccc1-c1ccc(C#N)cc1	34300	2.3	26	15100	36	1420	1.08	38.5	33	71	10	12	–	–
Cc1cc(-c2ccc(F)cc2)ccc1Oc1cc(N)nc(Nc2ccc(C#N)cc2)n1	20100	9.5	50	2120	–	–	–	–	–	–	–	–	–	–
Cc1cc(-c2cccc(Cl)c2)cc(C)c1Oc1cc(N)nc(Nc2ccc(C#N)cc2)n1	22300	38	85	588	–	–	–	–	–	–	–	–	–	–
Cc1cc(-c2ccc(C#N)cc2)ccc1Oc1cc(N)nc(Nc2ccc(C#N)cc2)n1	10400	2	29	5250	–	1110	–	–	32	38	3	9	–	–
Cc1cc(-c2ccc(C#N)c(F)c2)cc(C)c1Oc1cc(N)nc(Nc2ccc(C#N)cc2)n1	5000	5.33	50	937	–	–	–	–	–	–	–	–	–	–
Cc1ccc(-c2cc(C)c(Oc3cc(N)nc(Nc4ccc(C#N)cc4)n3)c(C)c2)cc1	10000	40.1	69	249	–	–	–	–	–	–	–	–	–	–
Cc1cc(-c2ccccc2Cl)cc(C)c1Oc1cc(N)nc(Nc2ccc(C#N)cc2)n1	25100	28.4	100	882	–	–	–	–	–	–	–	–	–	–
Cc1cc(-c2ccccc2C#N)cc(C)c1Oc1cc(N)nc(Nc2ccc(C#N)cc2)n1	25400	7.12	40	3570	–	–	–	–	–	–	–	–	–	–
Cc1cc(-c2ccc(Cl)cc2)cc(C)c1Oc1cc(N)nc(Nc2ccc(C#N)cc2)n1	21500	34.2	102	628	–	–	–	–	–	–	–	–	–	–
Cc1cc(-c2ccccc2C#N)ccc1Oc1cc(N)nc(Nc2ccc(C#N)cc2)n1	28600	9.84	50	2900	–	–	–	–	–	–	–	–	–	–
O=C1Nc2ccc(Cl)cc2[C@@](C#CC2CC2)(C(F)(F)F)O1 [EFAVIRENZ]	> 6340	–	–	–	–	–	–	–	7	30	–	–	–	–
Cc1cc(-c2ccc(C#N)c(C#N)c2)cc(C)c1Oc1cc(N)nc(Nc2ccc(C#N)cc2)n1	17600	5.69	40	3090	–	–	–	–	–	–	–	–	–	–
Cc1cc(-c2ccc(C#N)cc2)cc(C)c1Oc1cc(N)nc(Nc2ccc(C#N)cc2)n1	18100	4.7	37	3870	–	82	–	–	16	8	4	12	–	–
COc1cc(Oc2cc(N)nc(Nc3ccc(C#N)cc3)n2)ccc1-c1ccc(C#N)cc1	12900	2.3	30	5590	–	1360	–	–	28	36	12	13	–	–
Cc1cc(-c2ccc(C#N)c(C#N)c2)ccc1Oc1cc(N)nc(Nc2ccc(C#N)cc2)n1	76700	10.9	90	7040	–	–	–	–	–	–	–	–	–	–

Structure (SMILES)	CC50 [1] [nM]	EC50 [2] [nM]	IC50 [3] [nM]	selectivity ratio (in vitro [4])	microsomal CLint at 1 µM [5] [µL/min/mg]	EC50 [6] [nM]	CLint scaled at 0.75 h, 1 µM (in vitro [7]; liver) [mL/min/kg]	half-life at 0.75 h, 1 µM (in vitro [8]; liver microsomes) [min]	EC50 [9] [nM]	EC50 [10] [nM]	EC50 [11] [nM]	EC50 [12] [nM]	CLint scaled at 0.75 h, 1 µM (in vitro [7]) [mL/min/kg]	half-life at 0.75 h, 1 µM (in vitro [8]; microsomes) [min]
Cc1cc(-c2ccc(F)cc2)cc(C)c1Oc1cc(N)nc(Nc2ccc(C#N)cc2)n1	23100	13.6	61	1700	–	–	–	–	–	–	–	–	–	–
Cc1cc(-c2cccc(C#N)c2)ccc1Oc1cc(N)nc(Nc2ccc(C#N)cc2)n1	27400	5.5	41	4940	–	6550	–	–	450	287	105	36	–	–
O=C(O)Cc1ccccc1Nc1c(Cl)cccc1Cl [DICLOFENAC]	–	–	–	–	150	–	–	–	–	–	–	–	4.49	9.25
Cc1ccnc2c1NC(=O)c1cccnc1N2C1CC1 [NEVIRAPINE]	> 15000	–	–	–	–	> 15000	–	–	11500	1360	5840	–	–	–
COc1ccccc1-c1cc(C)c(Oc2cc(N)nc(Nc3ccc(C#N)cc3)n2)c(C)c1	21800	42.8	122	508	–	–	–	–	–	–	–	–	–	–
Cc1ccccc1-c1cc(C)c(Oc2cc(N)nc(Nc3ccc(C#N)cc3)n2)c(C)c1	25600	35.2	121	726	–	–	–	–	–	–	–	–	–	–
Cc1cc(-c2cccc(F)c2)ccc1Oc1cc(N)nc(Nc2ccc(C#N)cc2)n1	11300	60.6	101	187	–	–	–	–	–	–	–	–	–	–
Cc1cc(-c2cccc(F)c2)cc(C)c1Oc1cc(N)nc(Nc2ccc(C#N)cc2)n1	24700	15.8	52	1570	–	–	–	–	–	–	–	–	–	–
COc1cc2cc(C#N)ccc2c(OC)c1Oc1cc(N)nc(Nc2ccc(C#N)cc2)n1	19000	5	–	3500	–	–	–	–	–	38	–	–	–	–
Cc1cc(C#N)cc(C)c1Oc1nc(Nc2ccc(C#N)cc2)nc(N)c1Br [ETRAVIRINE]	> 4600	2.9	–	–	–	18	–	–	–	6	2	6	–	–
Cc1cc(-c2ccccc2F)cc(C)c1Oc1cc(N)nc(Nc2ccc(C#N)cc2)n1	29300	9.6	46	3060	–	–	–	–	–	–	–	–	–	–
Cc1cc(-c2ccccc2)ccc1Oc1cc(N)nc(Nc2ccc(C#N)cc2)n1	20000	19	39	1050	–	–	–	–	–	–	–	–	–	–
Cc1cc(-c2ccccc2F)ccc1Oc1cc(N)nc(Nc2ccc(C#N)cc2)n1	29500	11.5	45	2560	–	–	–	–	–	–	–	–	–	–
COc1ccc(-c2cc(C)c(Oc3cc(N)nc(Nc4ccc(C#N)cc4)n3)c(C)c2)cc1	10700	7.7	54	1390	–	–	–	–	–	–	–	–	–	–
Cc1cccc(-c2cc(C)c(Oc3cc(N)nc(Nc4ccc(C#N)cc4)n3)c(C)c2)c1	27600	68.3	152	404	–	–	–	–	–	–	–	–	–	–
Cc1cc(-c2cccc(C#N)c2)cc(C)c1Oc1cc(N)nc(Nc2ccc(C#N)cc2)n1	20200	7	42	2890	–	878	–	–	73	88	8	46	–	–
Cc1cc(-c2ccccc2)cc(C)c1Oc1cc(N)nc(Nc2ccc(C#N)cc2)n1	25600	9.7	45	2640	–	–	–	–	–	–	–	–	–	–
